Measured values as given in patent US20230295096A1, “PYRAZOLE CARBOXAMIDE COMPOUNDS FOR TREATMENT OF HBV” (ASSEMBLY BIOSCIENCES, INC., priority 2020, published 2023).

The molecules below were run on HBV (assay: Viral load production from HepAD38 cells, qPCR of the HBV core sequence in supernatant). Conditions: Hepatitis B virus, HePAD38, 120 h, HepAD38 cells, 5 days, HBV DNA in supernatant by qPCR; Table 1 ranges; read-out: Activity (viral load lowering EC50).
Format: cell-based
Summary of the method: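 EC50 and CC50 come from four-parameter logistic fits of supernatant HBV core DNA (TaqMan qPCR, DNA standards, compared with DMSO wells) and of CellTiter-Glo luminescence.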

Compound	EC50
Cn1nc(C2CC3CN(C(=O)OC4COC4)CC3C2)c(C(=O)Nc2ccc(F)c(Cl)c2)c1N (stereo not shown) [Example 119, Oxetan-3-yl 5-(5-amino-4-((3-chloro-4-fluorophenyl)carbamoyl)-1-methyl-1H-pyrazol-3-yl)hexahydrocyclopenta[c]pyrrole-2(1H)-carboxylate]	0.01 to 0.05 µM
Cn1nc(C2CC3CN(C(=O)c4cnc(C(F)(F)F)s4)CC3C2)c(C(=O)Nc2ccc(F)c(Cl)c2)c1N (stereo not shown) [Example 120, 5-Amino-N-(3-chloro-4-fluorophenyl)-1-methyl-3-(2-(2-(trifluoromethyl)thiazole-5-carbonyl)octahydrocyclopenta[c]pyrrol-5-yl)-1H-pyrazole-4-carboxamide]	0.05 to 0.5 µM
Cn1nc(C2CC3CN(C(=O)c4cccc(F)c4)CC3C2)c(C(=O)Nc2ccc(F)c(Cl)c2)c1N (stereo not shown) [Example 121, 5-Amino-N-(3-chloro-4-fluorophenyl)-3-(2-(3-fluorobenzoyl)octahydrocyclopenta[c]pyrrol-5-yl)-1-methyl-1H-pyrazole-4-carboxamide]	0.01 to 0.05 µM
Cn1nc(C2CC3CN(C(=O)Nc4cccc(F)c4)CC3C2)c(C(=O)Nc2ccc(F)c(Cl)c2)c1N (stereo not shown) [Example 122, 5-(5-Amino-4-((3-chloro-4-fluorophenyl)carbamoyl)-1-methyl-1H-pyrazol-3-yl)-N-(3-fluorophenyl)hexahydrocyclopenta[c]pyrrole-2(1H)-carboxamide]	0.01 to 0.05 µM
Cn1nc(C2CC3CN(C(=O)NC4CC(F)(F)C4)CC3C2)c(C(=O)Nc2ccc(F)c(Cl)c2)c1N (stereo not shown) [Example 123, 5-(5-Amino-4-((3-chloro-4-fluorophenyl)carbamoyl)-1-methyl-1H-pyrazol-3-yl)-N-(3,3-difluorocyclobutyl)hexahydrocyclopenta[c]-pyrrole-2(1H)-carboxamide]	0.05 to 0.5 µM
Cn1nc(C2CC3CN(c4c(F)cncc4F)CC3C2)c(C(=O)Nc2ccc(F)c(Cl)c2)c1N (stereo not shown) [Example 124, 5-Amino-N-(3-chloro-4-fluorophenyl)-3-(2-(3,5-difluoropyridin-4-yl)octahydrocyclopenta[c]pyrrol-5-yl)-1-methyl-1H-pyrazole-4-carboxamide]	0.01 to 0.05 µM
Cn1nc(C2CC3CN(c4ncc(F)cn4)CC3C2)c(C(=O)Nc2ccc(F)c(Cl)c2)c1N (stereo not shown) [Example 125, 5-Amino-N-(3-chloro-4-fluorophenyl)-3-(2-(5-fluoropyrimidin-2-yl)octahydrocyclopenta[c]pyrrol-5-yl)-1-methyl-1H-pyrazole-4-carboxamide]	0.01 to 0.05 µM
Cn1nc(C2CC3CN(C(=O)NCC4CC(F)(F)C4)CC3C2)c(C(=O)Nc2ccc(F)c(Cl)c2)c1N (stereo not shown) [Example 126, 5-(5-Amino-4-((3-chloro-4-fluorophenyl)carbamoyl)-1-methyl-1H-pyrazol-3-yl)-N-((3,3-difluorocyclobutyl)methyl)-hexahydrocyclopenta[c]pyrrole-2(1H)-carboxamide]	0.05 to 0.5 µM
Cn1nc(C2CC3CN(C(=O)Nc4ncc(C(F)(F)F)s4)CC3C2)c(C(=O)Nc2ccc(F)c(Cl)c2)c1N (stereo not shown) [Example 127, 5-(5-Amino-4-((3-chloro-4-fluorophenyl)carbamoyl)-1-methyl-1H-pyrazol-3-yl)-N-(5-(trifluoromethyl)thiazol-2-yl)hexahydrocyclopenta[c]pyrrole-2(1H)-carboxamide]	0.05 to 0.5 µM
Cn1nc(C2CC3CN(C(=O)OCc4cccc(F)c4)CC3C2)c(C(=O)Nc2ccc(F)c(Cl)c2)c1N (stereo not shown) [Example 130, 3-fluorobenzyl 5-(5-amino-4-((3-chloro-4-fluorophenyl)carbamoyl)-1-methyl-1H-pyrazol-3-yl)hexahydrocyclopenta[c]pyrrole-2(1H)-carboxylate]	0.01 to 0.05 µM
Cn1nc(C2CC3CN(C(=O)NCc4cccc(F)c4)CC3C2)c(C(=O)Nc2ccc(F)c(Cl)c2)c1N (stereo not shown) [Example 131, 5-(5-Amino-4-((3-chloro-4-fluorophenyl)carbamoyl)-1-methyl-1H-pyrazol-3-yl)-N-(3-fluorobenzyl)hexahydrocyclopenta[c]pyrrole-2(1H)-carboxamide]	0.01 to 0.05 µM
Cn1nc(C2CC3CN(c4ccc(C(F)(F)F)nn4)CC3C2)c(C(=O)Nc2ccc(F)c(Cl)c2)c1N (stereo not shown) [Example 132, 5-Amino-N-(3-chloro-4-fluorophenyl)-1-methyl-3-(2-(6-(trifluoromethyl)pyridazin-3-yl)octahydrocyclopenta[c]pyrrol-5-yl)-1H-pyrazole-4-carboxamide]	0.01 to 0.05 µM
Cn1nc(C2CC3CN(c4ncc(C(F)(F)F)cn4)CC3C2)c(C(=O)Nc2ccc(F)c(Cl)c2)c1N (stereo not shown) [Example 133, 5-Amino-N-(3-chloro-4-fluorophenyl)-1-methyl-3-(2-(5-(trifluoromethyl)pyrimidin-2-yl)octahydrocyclopenta[c]pyrrol-5-yl)-1H-pyrazole-4-carboxamide]	0.05 to 0.5 µM
Cn1nc(C2CC3CN(c4ncc(C(F)(F)F)s4)CC3C2)c(C(=O)Nc2ccc(F)c(Cl)c2)c1N (stereo not shown) [Example 134, 5-Amino-N-(3-chloro-4-fluorophenyl)-1-methyl-3-(2-(5-(trifluoromethyl)thiazol-2-yl)octahydrocyclopenta[c]pyrrol-5-yl)-1H-pyrazole-4-carboxamide]	0.05 to 0.5 µM
Cn1nc(C2CC3CN(c4cnc(C(F)(F)F)cn4)CC3C2)c(C(=O)Nc2ccc(F)c(Cl)c2)c1N (stereo not shown) [Example 135, 5-Amino-N-(3-chloro-4-fluorophenyl)-1-methyl-3-(2-(5-(trifluoromethyl)pyrazin-2-yl)octahydrocyclopenta[c]pyrrol-5-yl)-1H-pyrazole-4-carboxamide]	0.05 to 0.5 µM
Cn1nc(C2CC3CN(c4c(Cl)cncc4Cl)CC3C2)c(C(=O)Nc2ccc(F)c(Cl)c2)c1N (stereo not shown) [Example 136, 5-Amino-N-(3-chloro-4-fluorophenyl)-3-(2-(3,5-dichloropyridin-4-yl)octahydrocyclopenta[c]pyrrol-5-yl)-1-methyl-1H-pyrazole-4-carboxamide]	0.05 to 0.5 µM
Cn1cc(C2(O)CC3CC(c4nn(C)c(N)c4C(=O)Nc4ccc(F)c(Cl)c4)CC3C2)cn1 (stereo not shown) [Example 146]	< 0.01 µM
Cn1nc(C2CC3CC(O)(c4ncc[nH]4)CC3C2)c(C(=O)Nc2ccc(F)c(Cl)c2)c1N (stereo not shown) [Example 147]	0.01 to 0.05 µM
Cn1nc(C2CC3CC(O)(c4ncc(C(F)(F)F)s4)CC3C2)c(C(=O)Nc2ccc(F)c(Cl)c2)c1N (stereo not shown) [Example 148]	0.01 to 0.05 µM
Cn1nc(C2CC3CC(O)(c4nc(C(F)(F)F)cs4)CC3C2)c(C(=O)Nc2ccc(F)c(Cl)c2)c1N (stereo not shown) [Example 149]	0.01 to 0.05 µM
Cn1cc(Br)c(C2(O)CC3CC(c4nn(C)c(N)c4C(=O)Nc4ccc(F)c(Cl)c4)CC3C2)n1 (stereo not shown) [Example 150]	< 0.01 µM
Cn1nc(C2CC3CC(O)(c4sc(C(F)(F)F)nc4Br)CC3C2)c(C(=O)Nc2ccc(F)c(Cl)c2)c1N (stereo not shown) [Example 151]	0.05 to 0.5 µM
Cn1nc(C2CC3CC(O)(c4nc5cc(F)c(F)cc5n4C)CC3C2)c(C(=O)Nc2ccc(F)c(Cl)c2)c1N (stereo not shown) [Example 152]	0.01 to 0.05 µM

Same assay, conditions: Hepatitis B virus, HePAD38, 120 h, HepAD38 cells, 5 days, HBV DNA in supernatant by qPCR; Table 2 ranges; read-out: VL HepAD38 EC50 range

Compound	EC50
Cn1nc(C2CC3CC3C2)c(C(=O)Nc2ccc(F)c(Cl)c2)c1N (stereo not shown) [Example 139, 5-Amino-3-(bicyclo[3.1.0]hexan-3-yl)-N-(3-chloro-4-fluorophenyl)-1-methyl-1H-pyrazole-4-carboxamide]	< 0.1 µM
Cn1nc(C2CC3CC(=O)C(c4ccccc4)C3C2)c(C(=O)Nc2ccc(F)c(Cl)c2)c1N (stereo not shown) [Example 140, 5-Amino-N-(3-chloro-4-fluorophenyl)-1-methyl-3-(5-oxo-4-phenyloctahydropentalen-2-yl)-1H-pyrazole-4-carboxamide]	< 0.1 µM
